Laboratory results from the supplement of paper PMC10307832.

Columns and labels:
Test in all cases: relative viability (nuclei count vs DMSO), 5 days (fraction); higher = more cells survive
IU1-47 + Bortezomib = compound: CC1=CC(=C(N1C2=CC=C(C=C2)Cl)C)C(=O)CN3CCCCC3 [IU1-47] + CC(C)C[C@H](NC(=O)[C@H](Cc1ccccc1)NC(=O)c1cnccn1)B(O)O [Bortezomib] (partner 0.002 µM)
How it was run: (§1)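 The day after seeding in 1536-well plates, lung cancer cell lines were treated by pin tool with a single drug, or with a fixed anchor-drug dose together with five library-drug doses (not always all listed) in √10 steps. After 5 days, a combined fix-and-stain solution (final 0.05% Triton X-100, 1% formaldehyde, 1 ug/ml Hoechst) was added. Nuclei counted on 4× images gave relative viability as treated counts over vehicle counts, reported as the median of duplicate plates.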

IU1-47 + Navitoclax = compound: CC1=CC(=C(N1C2=CC=C(C=C2)Cl)C)C(=O)CN3CCCCC3 [IU1-47] + CC1(C)CCC(c2ccc(Cl)cc2)=C(CN2CCN(c3ccc(C(=O)NS(=O)(=O)c4ccc(N[C@H](CCN5CCOCC5)CSc5ccccc5)c(S(=O)(=O)C(F)(F)F)c4)cc3)CC2)C1 [Navitoclax] (partner 0.5 µM)
How it was run: as §1

FG-4592 + Phenformin = compound: Cc1nc(C(=O)NCC(=O)O)c(O)c2ccc(Oc3ccccc3)cc12 [FG-4592] + N=C(N)NC(=N)NCCc1ccccc1 [Phenformin] (partner 250 µM)
How it was run: as §1

IU1-47 + Pemetrexed = compound: CC1=CC(=C(N1C2=CC=C(C=C2)Cl)C)C(=O)CN3CCCCC3 [IU1-47] + Nc1nc2[nH]cc(CCc3ccc(C(=O)N[C@@H](CCC(=O)O)C(=O)O)cc3)c2c(=O)[nH]1 [Pemetrexed] (partner 0.2 µM)
How it was run: as §1

| Cell Line | relative viability (IU1-47 + Bortezomib; first compound 0.08 µM) | relative viability (IU1-47 + Bortezomib; first compound 0.253 µM) | relative viability (IU1-47 + Bortezomib; first compound 0.8 µM) | relative viability (IU1-47 + Bortezomib; first compound 8 µM) | relative viability (IU1-47 + Navitoclax; first compound 0.08 µM) | relative viability (IU1-47 + Navitoclax; first compound 0.253 µM) | relative viability (IU1-47 + Navitoclax; first compound 0.8 µM) | relative viability (IU1-47 + Navitoclax; first compound 8 µM) | relative viability (FG-4592 + Phenformin; first compound 0.08 µM) | relative viability (FG-4592 + Phenformin; first compound 0.253 µM) | relative viability (FG-4592 + Phenformin; first compound 0.8 µM) | relative viability (FG-4592 + Phenformin; first compound 2.53 µM) | relative viability (FG-4592 + Phenformin; first compound 8 µM) | relative viability (IU1-47 + Pemetrexed; first compound 0.08 µM) | relative viability (IU1-47 + Pemetrexed; first compound 0.253 µM) | relative viability (IU1-47 + Pemetrexed; first compound 0.8 µM) | relative viability (IU1-47 + Pemetrexed; first compound 2.53 µM) | relative viability (IU1-47 + Pemetrexed; first compound 8 µM) | relative viability (IU1-47 + Navitoclax; first compound 2.53 µM) | relative viability (IU1-47 + Bortezomib; first compound 2.53 µM) |
| --- | --- | --- | --- | --- | --- | --- | --- | --- | --- | --- | --- | --- | --- | --- | --- | --- | --- | --- | --- | --- |
| 201T | 1.1 | 1.06 | 1.14 | 1.05 | 1.23 | 1.2 | 1.21 | 1.22 | 0.399 | 0.408 | 0.423 | 0.437 | 0.493 | 0.458 | 0.386 | 0.317 | 0.261 | 0.389 |  |  |
| A549 |  |  |  |  | 1.23 | 1.27 | 1.21 | 1.1 | 0.166 | 0.154 | 0.159 | 0.191 | 0.216 |  |  |  |  |  | 1.26 |  |
| A-427 | 1.01 | 0.968 | 1.06 | 0.841 | 1.04 | 0.993 | 1.04 | 0.926 | 0.27 | 0.313 | 0.341 | 0.335 | 0.414 | 1.06 | 1 | 0.993 | 1 | 0.937 |  |  |
| ABC-1 | 0.327 | 0.281 | 0.256 | 0.312 |  |  |  |  | 0.232 | 0.201 | 0.211 | 0.258 | 0.254 |  |  |  |  |  |  |  |
| BEN | 0.755 | 0.906 | 1.07 | 0.641 | 0.073 | 0.0735 | 0.0687 | 0.0719 | 0.234 | 0.231 | 0.268 | 0.288 | 0.306 | 0.732 | 0.765 | 0.899 | 0.523 | 0.674 | 0.0707 | 0.848 |
| CAL-12T | 1.05 | 0.946 | 0.945 | 0.802 | 1.29 | 1.32 | 1.24 | 1.38 | 0.593 | 0.51 | 0.56 | 0.546 | 0.542 | 1.2 | 1.39 | 1.15 | 1.34 | 1.04 | 1.24 | 0.972 |
| COR-L23 | 1.12 | 1.1 | 1.21 | 1.08 | 1.1 | 1.1 | 1.21 | 1.22 | 0.467 | 0.375 | 0.477 | 0.411 | 0.437 | 0.212 | 0.18 | 0.199 | 0.195 | 0.208 | 1.16 | 0.932 |
| COR-L 105 | 1.23 | 1.01 | 0.851 | 0.708 | 0.896 | 0.809 | 0.865 | 0.68 | 0.46 | 0.432 | 0.456 | 0.437 | 0.45 | 1.12 | 1.17 | 0.93 | 1.12 | 1.02 | 0.81 | 0.899 |
| Calu-6 | 1.2 | 1.02 | 0.957 | 0.998 | 1.07 | 1.01 | 0.827 | 0.802 |  |  |  |  |  |  |  |  |  |  | 0.867 | 0.96 |
| ChaGo-K-1 | 0.953 | 0.971 | 0.952 | 0.682 | 1.15 | 1.15 | 0.895 | 0.625 | 0.525 | 0.478 | 0.44 | 0.466 | 0.492 | 0.26 | 0.257 | 0.282 | 0.249 | 0.268 | 0.889 | 1.27 |
| EBC-1 | 0.516 | 0.528 | 0.535 | 0.542 | 0.487 | 0.479 | 0.393 | 0.299 |  |  |  |  |  |  |  |  |  |  | 0.413 | 0.715 |
| EKVX | 1.18 | 1.11 | 1.18 | 0.985 | 1.24 | 1.17 | 0.965 | 0.882 | 0.205 | 0.237 | 0.224 | 0.221 | 0.262 | 0.407 | 0.406 | 0.423 |  | 0.453 | 0.973 | 1.13 |
| EMC-BAC-2 | 1.09 | 1.07 | 1.04 | 1.04 | 1.25 | 1.26 | 1.21 | 1.04 | 0.496 | 0.516 | 0.414 | 0.509 | 0.454 | 0.458 | 0.436 | 0.556 | 0.459 | 0.468 | 1.16 | 1.15 |
| EPLC-272H | 1.05 | 0.943 | 1.04 | 0.891 | 1.19 | 1.07 | 1.07 | 1.12 | 0.323 | 0.237 | 0.268 | 0.274 | 0.31 | 0.332 | 0.422 | 0.316 | 0.327 | 0.313 |  |  |
| H3255 | 1.15 | 1.12 | 0.766 | 0.619 | 0.557 | 0.602 | 0.489 | 0.446 | 0.359 | 0.345 | 0.361 | 0.33 | 0.323 | 0.624 | 0.544 | 0.63 | 0.605 | 0.511 | 0.511 | 0.793 |
| HARA | 1.19 | 1.21 | 1.1 | 0.971 | 1.16 | 1.19 | 1.19 | 0.998 | 0.412 | 0.394 | 0.512 | 0.509 | 0.477 | 0.258 |  | 0.199 | 0.26 | 0.22 | 1.2 | 1.17 |
| HCC-15 | 1.11 | 1.05 | 1.05 | 0.856 | 0.829 | 0.721 | 0.815 | 0.589 | 0.524 | 0.424 | 0.533 | 0.462 | 0.503 | 0.229 | 0.219 | 0.226 | 0.218 | 0.228 | 0.626 | 0.928 |
| HCC-44 | 0.891 | 0.851 | 0.89 | 0.898 | 1.14 | 1.01 | 1 | 0.956 | 0.107 | 0.184 |  | 0.145 | 0.151 | 0.706 | 0.685 | 0.647 | 0.668 | 0.696 | 0.908 | 0.873 |
| HCC-78 | 0.712 | 0.562 | 0.49 | 0.596 | 0.906 | 0.866 | 0.819 | 0.747 | 0.683 | 0.621 | 0.809 | 0.723 | 0.716 | 0.898 | 0.889 | 0.929 | 0.865 | 0.862 | 0.578 | 0.381 |
